We go through four compounds from patent US20260035411A1, “CRYSTALLINE FORMS OF A PCSK9 INHIBITOR, COMPOSITIONS AND USES” (MERCK SHARP & DOHME LLC, priority 2022, published 2026).

The nature of data set [1]: XRPD analysis before and after adsorption/desorption cycles (physical stability, crystallinity). It is filed as physicochemical. How it is done:
X-ray powder diffraction studies are widely used to characterize molecular structures, crystallinity, and polymorphism. The X-ray powder diffraction patterns disclosed herein were generated on a Philips Analytical X′Pert PRO X-ray Diffraction System with PW3040/60 console. A PW3373/00 ceramic Cu LEF X-ray tube K-Alpha radiation was used as the source.
In addition, the chloride salt requires −20° C. storage to minimize chemical degradation while the acetate and caprate salts are less prone to degradation at higher temperatures. […] The stability of crystalline forms of the compounds of Formula I were characterized by XRPD under relative humidity conditions that simulate potential storage conditions.

A short description of data set [2]: Adsorption/desorption cycles under relative humidity (weight increase, hygroscopicity).

Entries after “also recorded” stand apart in the source; their conditions may differ. Where two headings read alike, the source gives them in different places.

Regarding `COc1ccc(C[C@@H]2NC(=O)[C@H]([C@@H](C)O)NC(=O)[C@@H]3[C@@H]4CCN3C(=O)[C@@H]3Cc5cn(c6ccc(F)cc56)CCCCCCN(Cc5ccc(cc5)CCNC(=O)[C@]5(C)CCCN5C2=O)C(=O)CCC(=O)N[C@@H](C)C(=O)N[C@H](CNC(=O)CCCCC[N+](C)(C)C)C(=O)N[C@@H](Cc2cccc(c2)CNC(=O)CO4)C(=O)N3)cc1` [Acetate 4], the “crystallinity by XRPD after adsorption/desorption” value in data set [1] (5-95-5% RH adsorption/desorption cycle (FIG. 31B, 33B)) was “loses crystallinity”; in data set [1] (two adsorption/desorption cycles of 5-55% RH (FIG. 30B)), “retains minimal crystallinity; also recorded: decrease in crystallinity”. Moreover, the “hysteresis during the desorption step” value in data set [2] (5-95% RH cycle (FIG. 31A)) is listed as “Hysteresis is observed”. In addition, the increase in weight is reported as about 9% in data set [2] (at 55% RH (FIG. 30A)) and about 40% in data set [2] (at 95% RH (FIG. 31A, 33A)).
On to `COc1ccc(C[C@@H]2NC(=O)[C@H]([C@@H](C)O)NC(=O)[C@@H]3[C@@H]4CCN3C(=O)[C@@H]3Cc5cn(c6ccc(F)cc56)CCCCCCN(Cc5ccc(cc5)CCNC(=O)[C@]5(C)CCCN5C2=O)C(=O)CCC(=O)N[C@@H](C)C(=O)N[C@H](CNC(=O)CCCCC[N+](C)(C)C)C(=O)N[C@@H](Cc2cccc(c2)CNC(=O)CO4)C(=O)N3)cc1` [Caprate 3], for which the “crystallinity by XRPD after adsorption/desorption” value in data set [1] was “maintains its crystallinity; also recorded: retains crystallinity”. Besides, in data set [2], the increase in weight was about 4.9%, the “relative humidity by which H2O is readily absorbed” value was 25-35 % RH and the “relative humidity until which H2O is not lost” value worked out at 15 % RH.
Regarding `COc1ccc(C[C@@H]2NC(=O)[C@H]([C@@H](C)O)NC(=O)[C@@H]3[C@@H]4CCN3C(=O)[C@@H]3Cc5cn(c6ccc(F)cc56)CCCCCCN(Cc5ccc(cc5)CCNC(=O)[C@]5(C)CCCN5C2=O)C(=O)CCC(=O)N[C@@H](C)C(=O)N[C@H](CNC(=O)CCCCC[N+](C)(C)C)C(=O)N[C@@H](Cc2cccc(c2)CNC(=O)CO4)C(=O)N3)cc1` [Caprate 5], the “crystallinity by XRPD after adsorption/desorption” value in data set [1] is recorded as “retains some crystallinity; also recorded: loses crystallinity; also recorded: decrease in crystallinity”. The “hysteresis during the desorption steps” value in data set [2] was “Slight hysteresis is observed”.
On to `COc1ccc(C[C@@H]2NC(=O)[C@H]([C@@H](C)O)NC(=O)[C@@H]3[C@@H]4CCN3C(=O)[C@@H]3Cc5cn(c6ccc(F)cc56)CCCCCCN(Cc5ccc(cc5)CCNC(=O)[C@]5(C)CCCN5C2=O)C(=O)CCC(=O)N[C@@H](C)C(=O)N[C@H](CNC(=O)CCCCC[N+](C)(C)C)C(=O)N[C@@H](Cc2cccc(c2)CNC(=O)CO4)C(=O)N3)cc1` [water-free Caprate 3], for which the “crystallinity by XRPD after adsorption/desorption” value in data set [1] was “retains crystallinity”. In addition, in data set [2], the increase in weight is about 9.4%.
